In US9752049B2, “Optically transparent, superhydrophobic, biocompatible thin film coatings and methods for producing same” (UT-BATTELLE, LLC, priority 2014, dated 2017) one finds solubility data, which are given here for one compound.

The solubility is how much of the substance goes into solution per volume.

In brackets after ≈: the same amount, converted by molar mass.

This series in a line: physchem. The settings on record: organic solvent or mixture, Solubility Limit. From the text: The first step was to gather solubility data on the fatty acids in readily available solvents. […] The available solvents included ethanol, isopropanol, hexane, and acetone.
The next step was to use spin-coating to apply the optimum mixture of each fatty acid/alcohol solution to microscope slides. This process began with cleaning the slide, then affixing it to the spin-coater by turning on the internal vacuum. Once the slide was in place, the chosen solution was applied by a syringe using a 0.02 micron filter. This filter was to ensure that only the pure solution and no contaminants or occasional precipitates made it onto the slide. The coated slide was then spun at 1000 rpm for thirty seconds and placed on a hot plate at 152 degrees Fahrenheit to vaporize any remaining solvent. The slide was allowed to cool for two minutes. Once cool, the slide was subjected to a simple yet effective test of hydrophobicity. This test consisted of merely placing a water droplet on the slide using a Pasteur pipet and eyeballing it to see if it even merited further characterization. This process was repeated for many slides, each time varying the type of fatty acid and the solvent as well as the concentration of the fatty acid in the solvent. […] Below is additional solubility data for Behenic Acid: […]

`CCCCCCCCCCCCCC(=O)O` [Myristic Acid]: the solubility is 300 mM (≈ 68.5 mg/mL).
